Reference: patent publication US20190216767A1, “TOPICAL THERAPY FOR THE TREATMENT OF SKIN KERATOSES USING NANOPARTICLES OF TAXANES” (DFB SORIA, LLC, priority 2017, published 2019)

What was measured:
[1] = Observation of paclitaxel nanoparticle crystal growth by light microscopy; format: physicochemical
Göttingen minipigs = experiment: Dermal toxicity study (GLP, topical daily for 28 days); format: in vivo; conditions: topical daily for 28 days, 0.3, 1.0 and 3%
Protocol: The GLP-compliant study was conducted in Göttingen minipigs to characterize the toxicity of the formulations applied topically to 10% body surface area daily for 28 days. […] Reversibility of findings was also evaluated following a 2-week recovery period. Parameters evaluated included clinical observations, mortality and moribundity checks, dermal scoring, body weight, food consumption, eye examinations, test site photographs, electrocardiology, clinical pathology, bioanalysis and toxicokinetic evaluation, organ weights, macroscopic pathology and histopathology. There were no formulation-related effects on survival, clinical signs, dermal irritation, body weights, body weight gains, food consumption, ophthalmic findings, or cardiology parameters.

[2] = in Aluminum sulfate 0.1-0.2% in water, @ 7 days, RT
[3] = in Ammonium lauryl sulfate 2% in water, @ 3 days, RT
[4] = in Benzalkonium chloride (50%) 2% in water, @ 7 days & 21 days, RT
[5] = in CARBOPOL ULTREZ 10 (with Ammonium hydroxide as neutralizer) 0.5% in water, @ 8 days & 21 days, RT
[6] = in Castor Oil 100%, @ 24 hrs & 9 days, RT
[7] = in Dimethicone, 1000 cSt 100%, @ 24 hrs & 6 days, RT
[8] = in FOMBLIN HC04 100%, @ 4, 7 & 13 days, RT
[9] = in Hydroxyethyl cellulose 1% in water, @ 7 days, RT
[10] = in Hydroxypropyl methylcellulose 1% in water, @ 3 days, RT
[11] = in Lecithin 1% in water, @ 24 hrs, RT
[12] = in Light Mineral Oil NF 100%, @ 3 days, RT & 40 C.
[13] = in Magnesium nitrate 5% in water, @ 3 days, RT
[14] = in Mannitol 5% in water, @ 7 days, RT
[15] = in Mineral Oil USP (heavy) 100%, @ 3 days, RT & 40 C.
[16] = in PEG 400 10% in water, @ 22 days, RT & 60 C.
[17] = in Poloxamer 188 2% in water, @ 7 days, RT
[18] = in Poloxamer 407 2% in water, @ 5 & 7 days, RT
[19] = in Polyoxyl 40 Hydrogenated Castor Oil (KOLLIPHOR RH40) 1% in water, @ 6 days, RT
[20] = in Polysorbate 80 0.5% in Saline, @ 7 days, RT & 60 C.
[21] = in Polysorbate 80 0.5% in water, @ 22 days, RT & 60 C.
[22] = in Povidone 1% in water, @ 7 days & 21 days, RT
[23] = in Proline 3% in water, @ 7 days, RT
[24] = in Purified Water 100%, @ 5 days, RT & 60 C.
[25] = in ST-Cyclomethicone 5 NF 100%, @ 24 hrs & 13 days, RT
[26] = in Saline 0.9% NaCl in water, @ 7 days, RT & 60 C.
[27] = in Sodium lauryl sulfate 2% in water, @ 7 days, RT
[28] = in Sodium phosphate monobasic 0.75% in water, @ 7 days, RT
[29] = in Sorbitol 5% in water, @ 7 days, RT
[30] = in Vitamin E TPGS 0.5% in water, @ 6 days, RT
[31] = in Zinc acetate […] in water, @ 7 days, RT

CC(=O)O[C@H]1C(=O)[C@@]2(C)[C@H]([C@H](OC(=O)c3ccccc3)[C@]3(O)C[C@H](OC(=O)[C@H](O)[C@@H](NC(=O)c4ccccc4)c4ccccc4)C(C)=C1C3(C)C)[C@]1(OC(C)=O)CO[C@@H]1C[C@@H]2O [Paclitaxel nanoparticles, paclitaxel]
Crystal size (visual observation by light microscopy) [1, 2]: > 5 μm | Needle shaped crystals observed? (visual observation by light microscopy) [1, 2]: Yes | Crystal size (visual observation by light microscopy) [1, 3]: > 5 μm | Needle shaped crystals observed? (visual observation by light microscopy) [1, 3]: Yes | Crystal size (visual observation by light microscopy) [1, 4]: < 5 μm | Needle shaped crystals observed? (visual observation by light microscopy) [1, 4]: No | Crystal size (visual observation by light microscopy) [1, 5]: < 5 μm | Needle shaped crystals observed? (visual observation by light microscopy) [1, 5]: No | Crystal size (visual observation by light microscopy) [1, 6]: < 5 μm | Needle shaped crystals observed? (visual observation by light microscopy) [1, 6]: No | Crystal size (visual observation by light microscopy) [1, 7]: < 5 μm | Needle shaped crystals observed? (visual observation by light microscopy) [1, 7]: No | Crystal size (visual observation by light microscopy) [1, 8]: < 5 μm | Needle shaped crystals observed? (visual observation by light microscopy) [1, 8]: No | Crystal size (visual observation by light microscopy) [1, 9]: > 5 μm | Needle shaped crystals observed? (visual observation by light microscopy) [1, 9]: Yes | Crystal size (visual observation by light microscopy) [1, 10]: > 5 μm | Needle shaped crystals observed? (visual observation by light microscopy) [1, 10]: Yes | Crystal size (visual observation by light microscopy) [1, 11]: > 10 μm | Needle shaped crystals observed? (visual observation by light microscopy) [1, 11]: Yes | Crystal size (visual observation by light microscopy) [1, 12]: < 5 μm | Needle shaped crystals observed? (visual observation by light microscopy) [1, 12]: No | Crystal size (visual observation by light microscopy) [1, 13]: > 5 μm | Needle shaped crystals observed? (visual observation by light microscopy) [1, 13]: Yes | Crystal size (visual observation by light microscopy) [1, 14]: > 5 μm | Needle shaped crystals observed? (visual observation by light microscopy) [1, 14]: Yes | Crystal size (visual observation by light microscopy) [1, 15]: < 5 μm | Needle shaped crystals observed? (visual observation by light microscopy) [1, 15]: No | Crystal size (visual observation by light microscopy) [1, 16]: > 5 μm | Needle shaped crystals observed? (visual observation by light microscopy) [1, 16]: Yes | Crystal size (visual observation by light microscopy) [1, 17]: > 5 μm | Needle shaped crystals observed? (visual observation by light microscopy) [1, 17]: Yes | Crystal size (visual observation by light microscopy) [1, 18]: < 5 μm | Needle shaped crystals observed? (visual observation by light microscopy) [1, 18]: No | Crystal size (visual observation by light microscopy) [1, 19]: < 5 μm | Needle shaped crystals observed? (visual observation by light microscopy) [1, 19]: Yes | Crystal size (visual observation by light microscopy) [1, 20]: > 5 μm | Needle shaped crystals observed? (visual observation by light microscopy) [1, 20]: Yes | Crystal size (visual observation by light microscopy) [1, 21]: < 5 μm | Needle shaped crystals observed? (visual observation by light microscopy) [1, 21]: Yes | Crystal size (visual observation by light microscopy) [1, 22]: < 5 μm | Needle shaped crystals observed? (visual observation by light microscopy) [1, 22]: Yes | Crystal size (visual observation by light microscopy) [1, 23]: > 5 μm | Needle shaped crystals observed? (visual observation by light microscopy) [1, 23]: Yes | Crystal size (visual observation by light microscopy) [1, 24]: > 5 μm | Needle shaped crystals observed? (visual observation by light microscopy) [1, 24]: Yes | Crystal size (visual observation by light microscopy) [1, 25]: < 5 μm | Needle shaped crystals observed? (visual observation by light microscopy) [1, 25]: No | Crystal size (visual observation by light microscopy) [1, 26]: > 10 μm | Needle shaped crystals observed? (visual observation by light microscopy) [1, 26]: Yes | Crystal size (visual observation by light microscopy) [1, 27]: > 5 μm | Needle shaped crystals observed? (visual observation by light microscopy) [1, 27]: Yes | Crystal size (visual observation by light microscopy) [1, 28]: > 5 μm | Needle shaped crystals observed? (visual observation by light microscopy) [1, 28]: Yes | Crystal size (visual observation by light microscopy) [1, 29]: > 5 μm | Needle shaped crystals observed? (visual observation by light microscopy) [1, 29]: Yes | Crystal size (visual observation by light microscopy) [1, 30]: < 5 μm | Needle shaped crystals observed? (visual observation by light microscopy) [1, 30]: Yes | Crystal size (visual observation by light microscopy) [1, 31]: > 5 μm | Needle shaped crystals observed? (visual observation by light microscopy) [1, 31]: Yes | crystal growth of paclitaxel nanoparticles ([1]; in any of the hydrophobic carriers): did not grow | crystal growth of paclitaxel nanoparticles ([1]; in aqueous solutions of benzalkonium chloride, CARBOPOL ULTREZ 10, or poloxamer 407): did not grow | effect of the presence of the paclitaxel nanoparticles in the formulations on dermal irritation (Göttingen minipigs): negligible effect
